# Results reported in ChEMBL document CHEMBL5465560, “Selectivity Literature for EUbOPEN Chemogenomic Library” (2024).
# Legend:
# [1] = molecular target: T1, Peripheral plasma membrane protein CASK (Homo sapiens) (UniProt O14936); assay: Selectivity interaction (KinomeScan (DiscoverX)) EUB0000229b CASK; conditions: at 10 µM
# T1 sequence (whole entry): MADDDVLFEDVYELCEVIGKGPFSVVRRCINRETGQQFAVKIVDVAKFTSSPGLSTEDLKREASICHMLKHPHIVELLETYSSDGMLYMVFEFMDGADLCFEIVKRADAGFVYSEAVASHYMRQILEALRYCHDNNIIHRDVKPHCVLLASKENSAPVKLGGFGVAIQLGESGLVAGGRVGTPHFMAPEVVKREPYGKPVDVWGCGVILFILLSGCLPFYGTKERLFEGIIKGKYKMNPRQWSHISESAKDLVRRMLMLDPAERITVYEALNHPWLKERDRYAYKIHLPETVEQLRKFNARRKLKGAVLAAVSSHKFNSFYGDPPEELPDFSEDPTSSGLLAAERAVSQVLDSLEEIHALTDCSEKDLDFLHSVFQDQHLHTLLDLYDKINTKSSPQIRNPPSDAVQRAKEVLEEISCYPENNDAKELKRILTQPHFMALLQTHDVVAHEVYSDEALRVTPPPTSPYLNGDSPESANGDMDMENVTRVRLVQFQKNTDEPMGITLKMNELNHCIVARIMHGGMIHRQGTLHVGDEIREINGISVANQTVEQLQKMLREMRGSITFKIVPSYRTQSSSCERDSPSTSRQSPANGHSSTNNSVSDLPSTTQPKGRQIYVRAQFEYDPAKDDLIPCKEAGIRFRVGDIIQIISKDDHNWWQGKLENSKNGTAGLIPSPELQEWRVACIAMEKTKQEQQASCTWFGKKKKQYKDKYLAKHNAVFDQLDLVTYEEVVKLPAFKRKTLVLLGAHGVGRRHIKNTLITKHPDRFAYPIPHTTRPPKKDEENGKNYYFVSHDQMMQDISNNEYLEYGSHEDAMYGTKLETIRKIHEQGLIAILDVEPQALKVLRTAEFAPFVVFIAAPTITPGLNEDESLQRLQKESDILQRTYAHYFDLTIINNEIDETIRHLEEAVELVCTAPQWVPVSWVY
# [2] = molecular target: T2, Scaffold protein ILK (Homo sapiens) (UniProt Q13418); assay: Selectivity interaction (ActivX KiNativ screen (kinase selectivity in THP-1 cell lysates)) EUB0000639a ILK; type: subcellular; conditions: lysate
# T2 sequence (whole entry): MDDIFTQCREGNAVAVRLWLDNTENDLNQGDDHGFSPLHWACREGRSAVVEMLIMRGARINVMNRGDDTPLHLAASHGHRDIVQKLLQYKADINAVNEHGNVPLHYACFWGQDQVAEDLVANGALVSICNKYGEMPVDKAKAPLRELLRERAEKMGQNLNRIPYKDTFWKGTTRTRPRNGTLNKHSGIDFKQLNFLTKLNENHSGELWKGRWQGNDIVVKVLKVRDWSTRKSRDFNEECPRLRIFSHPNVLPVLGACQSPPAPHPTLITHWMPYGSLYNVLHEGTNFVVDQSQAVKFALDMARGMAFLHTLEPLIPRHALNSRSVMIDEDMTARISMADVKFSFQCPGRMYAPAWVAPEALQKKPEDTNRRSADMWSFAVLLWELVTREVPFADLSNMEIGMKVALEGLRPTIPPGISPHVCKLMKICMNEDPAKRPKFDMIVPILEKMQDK
# [3] = molecular target: Mitogen-activated protein kinase kinase kinase kinase 4 (Homo sapiens, UniProt O95819); assay: Selectivity interaction (KinomeScan (DiscoverX)) EUB0001049a MAP4K4; conditions: at 1 µM
# [4] = molecular target: Serine/threonine-protein kinase 38 (Homo sapiens) (UniProt Q15208); assay: Selectivity interaction (KinomeScan (DiscoverX)) EUB0000618a STK38; conditions: at 10 µM
# [5] = molecular target: Phosphatidylinositol 4-phosphate 5-kinase type-1 gamma (Homo sapiens) (UniProt O60331); assay: Selectivity interaction (Ambit KINOMEscan and KiNATiv profiling in Jurkat cells) EUB0000090b PIP5K1C; type: cell-based; conditions: at 1 µM
# [6] = molecular target: T3, Histone-lysine N-methyltransferase EHMT2 (Homo sapiens) (UniProt Q96KQ7); conditions: at 1 µM
# T3 sequence (whole entry): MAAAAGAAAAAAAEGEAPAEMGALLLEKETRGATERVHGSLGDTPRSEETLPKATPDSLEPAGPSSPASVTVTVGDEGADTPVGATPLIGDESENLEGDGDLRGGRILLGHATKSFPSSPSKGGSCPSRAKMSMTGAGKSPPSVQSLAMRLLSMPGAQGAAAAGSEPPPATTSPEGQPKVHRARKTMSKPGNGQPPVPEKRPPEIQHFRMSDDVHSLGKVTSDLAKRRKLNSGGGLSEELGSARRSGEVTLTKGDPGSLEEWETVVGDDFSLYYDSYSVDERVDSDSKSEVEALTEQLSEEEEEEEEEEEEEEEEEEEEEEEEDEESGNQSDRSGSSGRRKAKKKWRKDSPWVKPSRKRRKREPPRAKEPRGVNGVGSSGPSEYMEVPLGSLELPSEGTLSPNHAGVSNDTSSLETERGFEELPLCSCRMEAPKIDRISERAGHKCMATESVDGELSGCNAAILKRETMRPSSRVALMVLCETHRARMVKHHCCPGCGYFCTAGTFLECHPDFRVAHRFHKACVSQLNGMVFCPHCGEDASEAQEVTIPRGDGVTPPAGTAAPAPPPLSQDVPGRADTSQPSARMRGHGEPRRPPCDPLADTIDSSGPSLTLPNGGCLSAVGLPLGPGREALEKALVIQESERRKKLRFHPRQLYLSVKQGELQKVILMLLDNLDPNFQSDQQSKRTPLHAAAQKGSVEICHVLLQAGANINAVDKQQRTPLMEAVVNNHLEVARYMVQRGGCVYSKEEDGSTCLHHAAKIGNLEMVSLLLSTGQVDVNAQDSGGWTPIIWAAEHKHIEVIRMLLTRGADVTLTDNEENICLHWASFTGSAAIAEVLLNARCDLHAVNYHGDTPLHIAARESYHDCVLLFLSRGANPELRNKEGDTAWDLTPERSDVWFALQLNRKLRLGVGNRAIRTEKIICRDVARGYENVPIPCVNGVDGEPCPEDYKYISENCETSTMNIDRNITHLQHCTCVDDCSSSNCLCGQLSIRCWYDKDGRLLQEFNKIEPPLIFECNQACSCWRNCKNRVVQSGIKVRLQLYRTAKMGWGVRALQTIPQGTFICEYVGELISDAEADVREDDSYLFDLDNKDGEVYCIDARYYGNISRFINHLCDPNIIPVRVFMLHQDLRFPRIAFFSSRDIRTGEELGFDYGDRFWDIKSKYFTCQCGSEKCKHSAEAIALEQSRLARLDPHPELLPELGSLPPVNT
# [7] = molecular target: Mitogen-activated protein kinase 3 (Homo sapiens, UniProt P27361); assay: Selectivity interaction (KinomeScan (DiscoverX)) EUB0001619a MAPK3; conditions: at 1 µM
# Mitogen-activated protein kinase 3, sequence (P27361 whole entry): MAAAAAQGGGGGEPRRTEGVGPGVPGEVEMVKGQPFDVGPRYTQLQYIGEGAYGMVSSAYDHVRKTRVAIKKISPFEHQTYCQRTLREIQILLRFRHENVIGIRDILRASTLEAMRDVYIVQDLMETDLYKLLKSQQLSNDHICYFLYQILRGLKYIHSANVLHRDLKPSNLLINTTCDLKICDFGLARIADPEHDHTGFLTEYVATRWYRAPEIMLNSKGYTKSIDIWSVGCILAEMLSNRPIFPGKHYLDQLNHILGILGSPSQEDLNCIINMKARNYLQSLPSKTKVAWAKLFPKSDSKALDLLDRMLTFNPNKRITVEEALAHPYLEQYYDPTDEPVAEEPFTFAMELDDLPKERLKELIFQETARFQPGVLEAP
# Mitogen-activated protein kinase kinase kinase kinase 4, sequence (O95819 2-1239 limits assumed): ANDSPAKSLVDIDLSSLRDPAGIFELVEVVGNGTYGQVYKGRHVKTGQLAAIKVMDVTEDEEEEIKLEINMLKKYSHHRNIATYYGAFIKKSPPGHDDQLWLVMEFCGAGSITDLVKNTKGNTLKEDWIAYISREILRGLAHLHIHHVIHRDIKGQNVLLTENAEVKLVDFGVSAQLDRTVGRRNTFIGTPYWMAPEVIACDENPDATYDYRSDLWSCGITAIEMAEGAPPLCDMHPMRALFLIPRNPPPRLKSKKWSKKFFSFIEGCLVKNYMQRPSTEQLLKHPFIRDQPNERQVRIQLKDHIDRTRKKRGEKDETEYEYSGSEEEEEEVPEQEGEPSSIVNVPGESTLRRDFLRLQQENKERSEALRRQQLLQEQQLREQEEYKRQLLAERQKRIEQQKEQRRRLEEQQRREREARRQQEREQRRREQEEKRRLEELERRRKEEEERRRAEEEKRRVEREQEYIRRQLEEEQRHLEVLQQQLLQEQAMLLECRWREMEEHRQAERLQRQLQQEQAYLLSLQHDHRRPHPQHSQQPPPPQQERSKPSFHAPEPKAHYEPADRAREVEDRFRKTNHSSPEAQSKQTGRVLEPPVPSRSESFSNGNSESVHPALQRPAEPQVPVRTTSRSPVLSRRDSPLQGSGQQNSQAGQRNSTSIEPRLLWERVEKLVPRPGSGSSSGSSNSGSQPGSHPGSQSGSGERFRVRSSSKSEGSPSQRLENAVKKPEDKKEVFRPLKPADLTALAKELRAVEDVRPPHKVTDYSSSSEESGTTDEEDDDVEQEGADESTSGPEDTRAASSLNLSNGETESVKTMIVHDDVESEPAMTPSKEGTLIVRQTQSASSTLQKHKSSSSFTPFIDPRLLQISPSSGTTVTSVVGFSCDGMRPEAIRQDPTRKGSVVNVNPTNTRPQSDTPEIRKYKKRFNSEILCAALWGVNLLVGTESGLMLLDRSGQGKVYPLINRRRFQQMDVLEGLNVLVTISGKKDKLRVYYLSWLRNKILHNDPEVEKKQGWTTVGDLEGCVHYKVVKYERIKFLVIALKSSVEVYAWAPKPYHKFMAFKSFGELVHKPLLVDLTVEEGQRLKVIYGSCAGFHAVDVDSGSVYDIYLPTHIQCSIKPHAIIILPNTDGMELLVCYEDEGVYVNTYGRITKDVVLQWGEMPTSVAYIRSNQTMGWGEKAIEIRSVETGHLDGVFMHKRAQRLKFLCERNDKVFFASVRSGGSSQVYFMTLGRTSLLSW
# Serine/threonine-protein kinase 38 (Homo sapiens), sequence (Q15208 2-465 limits assumed): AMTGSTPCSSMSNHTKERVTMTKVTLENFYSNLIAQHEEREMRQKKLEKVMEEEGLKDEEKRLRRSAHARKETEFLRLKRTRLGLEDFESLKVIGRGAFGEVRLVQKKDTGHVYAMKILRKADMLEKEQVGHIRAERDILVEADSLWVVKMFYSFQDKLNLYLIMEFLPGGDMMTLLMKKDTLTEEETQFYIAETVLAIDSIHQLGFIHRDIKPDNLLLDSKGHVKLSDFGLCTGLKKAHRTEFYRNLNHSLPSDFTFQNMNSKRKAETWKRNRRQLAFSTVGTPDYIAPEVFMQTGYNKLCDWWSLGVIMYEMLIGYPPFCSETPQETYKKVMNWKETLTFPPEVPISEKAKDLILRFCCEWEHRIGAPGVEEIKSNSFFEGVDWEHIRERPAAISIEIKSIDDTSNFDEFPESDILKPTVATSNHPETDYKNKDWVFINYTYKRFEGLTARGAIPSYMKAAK
# Phosphatidylinositol 4-phosphate 5-kinase type-1 gamma (Homo sapiens), sequence (O60331 whole entry): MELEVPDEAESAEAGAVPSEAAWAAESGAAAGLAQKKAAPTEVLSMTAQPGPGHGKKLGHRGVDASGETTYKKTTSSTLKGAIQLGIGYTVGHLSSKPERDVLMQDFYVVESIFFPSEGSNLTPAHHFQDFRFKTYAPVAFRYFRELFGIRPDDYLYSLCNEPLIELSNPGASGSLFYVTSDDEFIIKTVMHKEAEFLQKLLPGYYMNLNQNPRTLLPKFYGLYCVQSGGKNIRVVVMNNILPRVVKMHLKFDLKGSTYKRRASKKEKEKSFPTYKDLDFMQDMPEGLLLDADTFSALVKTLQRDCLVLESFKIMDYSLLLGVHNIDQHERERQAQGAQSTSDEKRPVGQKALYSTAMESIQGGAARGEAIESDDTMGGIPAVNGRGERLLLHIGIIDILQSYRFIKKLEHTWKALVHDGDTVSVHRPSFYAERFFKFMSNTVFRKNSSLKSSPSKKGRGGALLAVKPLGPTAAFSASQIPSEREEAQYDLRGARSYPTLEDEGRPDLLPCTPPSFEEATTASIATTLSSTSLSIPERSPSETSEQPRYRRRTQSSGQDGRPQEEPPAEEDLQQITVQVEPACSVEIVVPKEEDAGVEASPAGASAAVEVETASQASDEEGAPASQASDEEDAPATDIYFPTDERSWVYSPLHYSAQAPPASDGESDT
compound,measurement,setting,value
COc1cc(N(C)c2ccnc3ccc(C(F)(F)F)cc23)cc(OC)c1OC,% binding,[1],55%
CC[C@@H]1[C@H](F)C(=O)N[C@@H]1COc1nccc2cc(C(N)=O)c(OC)cc12 [ZIMLOVISERTIB],% of inhibition,[2]; at 0.01 µM,6.6%
same,% of inhibition,[2]; at 0.04 µM,1.4%
same,% of inhibition,[2]; at 0.2 µM,11.2%
same,% of inhibition,[2]; at 1 µM,7.8%
same,% of inhibition,[2]; at 5 µM,-3.7%
COc1cc(Nc2nc(C)cc(-c3cnn4nc(OC)ccc34)n2)cc(C(F)(F)F)c1,% of control,[3],99%
O[C@H]1CC[C@H](Nc2ncc3nc(Nc4c(F)cc(F)cc4F)n([C@H]4CCOC4)c3n2)CC1,% of control,[4],100%
CN(C)C/C=C/C(=O)Nc1ccc(C(=O)N2CCCC(Nc3ncc(Cl)c(-c4c[nH]c5ccccc45)n3)C2)cc1 (stereo unspecified),% of control,[5],100%
CNCCN1CCC(c2cc(CN(C)C(=O)c3cccc(Oc4ccccc4)c3)ccn2)CC1,% activity,[6],> 90%
N#Cc1cccc(-c2c[nH]c3ncnc(N4CCOCC4)c23)c1,% of control,[7],87%
